Assays:
Assay in all cases: MTT assay
Type in all cases: cell-based, human
HeLa (Cervical) = details: 48 h, NA stands for Not Active
Protocol: (§1) Human cancer cell lines HepG2 (Liver), SK-MEL-1 (Skin), HT 018 (Colon), HeLa (Cervical), and MDA-MB 231 (Breast) were procured from the American Type Culture Collection (Rockville, MD, USA). MDA-MB-231 and HepG2 cell lines were maintained in DMEM; whereas SK-MEL-1, HeLa, and HT-018 were maintained in RPMI medium. The complete growth medium was supplemented with 10% (v/v) heat-inactivated FCS, 2 mM L-glutamine, and antimycotic-antibiotic solution. All of the cells were maintained in a standard culture condition of 37 °C temperature and 95% humidified atmosphere containing 5% CO2. Cells were screened periodically for mycoplasma contamination.
(§2) The novel complexes 1 and 2 were examined for their cytotoxicity against five different types of cancer cell lines viz., HepG2, SK-MEL-1, HT 018, HeLa, and MDA-MB 231 using a standard MTT reduction assay, according to Khan et al. (2012). Briefly, cells at a concentration of 1 × 10^6 cells/[…]/well were plated in 96-well plates and further grown in their respective medium containing 10% FCS. After 24 h, cells were incubated with 0–25 μM concentrations of test complexes or respective free ligands. Cells with 0.1% DMSO (vehicle control) and cisplatin (positive control) were also cultured under the same conditions. Cells only were used as negative control. Ensuing 48 h of incubation, old medium from treated cells was replaced with fresh medium. MTT reagent (5 mg/mL in PBS) was added to each well, and cells were further incubated for 2–3 h at 37 °C. After treatment, the supernatants were carefully removed, and 100 μL of DMSO was added to each well. Absorbance was measured at 620 nm in a multi-well plate reader, and drug sensitivity was expressed in terms of the concentration of drug required for a 50% reduction of cell viability (IC50).

HT018 (Colon) = details: HT018, 48 h; NA stands for Not Active
Protocol: as §1, §2

HepG2 (Liver) = details: HepG2, 48 h; NA stands for Not Active
Protocol: as §1, §2

SK-MEL-1 (Skin) = details: SK-MEL-1, 48 h; NA stands for Not Active
Protocol: as §1, §2

MDA-MB 231 (Breast) = details: MDA-MB 231, 48 h; NA stands for Not Active
Protocol: as §1, §2

N.N.[Cl][Pt][Cl] [Cisplatin, cisplatin, reference compound]
IC50 (HeLa (Cervical)): 6 ± 0.6 µM | IC50 (HT018 (Colon)): 5.7 ± 0.2 µM | IC50 (HepG2 (Liver)): 6 ± 0.4 µM | IC50 (SK-MEL-1 (Skin)): 5.6 ± 0.8 µM | IC50 (MDA-MB 231 (Breast)): 3.1 ± 0.2 µM

Source: PMC5983663, “Design, Synthesis, and Biological Evaluation of Benzimidazole-Derived Biocompatible Copper(II) and Zinc(II) Complexes as Anticancer Chemotherapeutics” (International Journal of Molecular Sciences, 2018)
